The values that follow are results of earlier work, collected in US8889745B2 (Nanunanu Ltd., priority 2006, dated 2014).

Each structure is given as a SMILES string. Converted amounts (≈) assume the structure as drawn.

Usually aqueous solubility stands for the concentration that dissolves in the medium under given conditions. With `C[C@@H]1C[C@H]2[C@@H]3CCC4=CC(=O)C=C[C@]4(C)[C@@]3(F)[C@@H](O)C[C@]2(C)[C@@]1(O)C(=O)CO` [dexamethasone], the aqueous solubility is 88 µg/mL (≈ 224 µM).
